Here are results for 10 compounds from ChEMBL document CHEMBL1201862, “PubChem BioAssay data set” (2004).

Some test systems named below: A498; A549; CAKI-1; HCT-116; HL-60; K562; KM12; MDA-MB-435; Malme-3M; NCI-H23; NCI-H460; NCI/ADR-RES; OVCAR-4; OVCAR-8; PC-3; SF-539; SNB-19; SNB-75; T47D; TK-10.
Holding throughout (assay): inhibition of tumour cell growth, NCI panel, 48 h

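A five-concentration, 48-hour dose response in 96-well plates underlies each endpoint, interpolated linearly between surrounding concentrations. Abbreviation: GI50, concentration required for 50% inhibition of growth.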 Active and inactive are the calls of the source. No stated cut-off is given here; in the data, active = GI50 up to about 1.1 µM and inactive = higher. *1 amine or outer side, *2 acyl side, *3 side chain or, on linkers, in order; H or OH if unused. Where a SMILES comes first, the peptide text is derived from it. Bridges are numbered along the chain shown (N, C = ends). Roman numbers before positions name the chains, in order. [ ]: non-standard residue; d: D form. Actinocin(1to9) = Cc1c2oc3c(C)ccc(C(=O)[*:2])c3nc-2c(C(=O)[*:1])c(N)c1=O; NMeV = CN[CH](C(=O)O)C(C)C; Sar = CNCC(=O)O Where only a bound is given, the exact number is not on record here.

As to `O=C(O)c1ccccc1CC(Cc1ccc2c(c1)CCC2)C(=O)O` (stereo not given), the GI50 in the assay with A498, in the assay with A549, with CAKI-1, in the assay with HCT-116, in the assay with HL-60 and in the assay with K562 was > 100 µM (inactive) in each case. Besides, the GI50 with KM12, with MDA-MB-435, in the assay with Malme-3M, in the assay on NCI-H23, with NCI-H460 and in the assay with NCI/ADR-RES was > 100 µM (inactive) throughout. Moreover, the GI50 with OVCAR-4, in the assay on OVCAR-8, in the assay on PC-3, in the assay with SF-539, in the assay on SNB-19 and in the assay with SNB-75 was > 100 µM (inactive) throughout. For the same compound, the GI50 in the assay on T47D and in the assay with TK-10 was > 100 µM (inactive) each time.

`N=C(N)NCCN1CCCCCc2ccccc21`: the GI50 in the assay with A498, with A549, in the assay with CAKI-1, in the assay with HCT-116, with HL-60 and with K562 was > 10 µM (inactive) in each case. Moreover, the GI50 in the assay on KM12, with MDA-MB-435, in the assay on Malme-3M, in the assay on NCI-H23, in the assay on NCI-H460 and in the assay with NCI/ADR-RES was > 10 µM (inactive) in each case. Moreover, the GI50 with OVCAR-4 was > 10 µM (inactive); in the assay on OVCAR-8, > 10 µM (inactive); in the assay on PC-3 it was 7.26 µM (inactive); in the assay with SF-539, > 10 µM (inactive); in the assay with SNB-19 it was > 10 µM (inactive); in the assay on SNB-75 it was 3.48 µM (inactive). The GI50 with T47D and in the assay with TK-10 was > 10 µM (inactive) throughout.

Take `O=c1c2c(nc3[nH]ccn13)CCC2`: the GI50 in the assay on A498 was 2.13 µM (inactive); with A549, > 10 µM (inactive); in the assay with CAKI-1 it was > 10 µM (inactive); in the assay with HCT-116, > 10 µM (inactive); in the assay with HL-60, > 10 µM (inactive); with K562, > 10 µM (inactive). The GI50 in the assay with KM12, with MDA-MB-435, in the assay on Malme-3M, in the assay with NCI-H23, in the assay on NCI-H460 and with NCI/ADR-RES was > 10 µM (inactive) in each case. Besides, the GI50 with OVCAR-4, with OVCAR-8, in the assay on PC-3, in the assay with SF-539, in the assay on SNB-19 and in the assay on SNB-75 was > 10 µM (inactive) throughout. Also, the GI50 with T47D and with TK-10 was > 10 µM (inactive) in each case.

In the case of `COC(=O)c1cc(NC(=O)c2cc(NC(=O)Cc3c[nH]c4ccccc34)cn2C)cn1C`, the GI50 with A498 is 24 µM (inactive); in the assay with A549, 29.4 µM (inactive); in the assay with CAKI-1, 57.1 µM (inactive); with HCT-116, 27.2 µM (inactive); with HL-60 it was 34.6 µM (inactive); in the assay on K562 it was 44.4 µM (inactive). The GI50 in the assay with KM12 is 24.3 µM (inactive); with MDA-MB-435, 30.3 µM (inactive); in the assay on Malme-3M, 21.1 µM (inactive); with NCI-H23, 24.3 µM (inactive); in the assay with NCI-H460 it was 30.5 µM (inactive); in the assay with NCI/ADR-RES, > 100 µM (inactive). The GI50 in the assay on OVCAR-4 is 43.1 µM (inactive); in the assay on OVCAR-8 it was 39.4 µM (inactive); in the assay on PC-3 it was 19.1 µM (inactive); with SF-539 it was 56.4 µM (inactive); in the assay on SNB-19, 21.8 µM (inactive); in the assay on SNB-75, 20.5 µM (inactive). Besides, the GI50 is > 100 µM (inactive) with T47D and 31.5 µM (inactive) in the assay on TK-10.

With `CCC(C)C1NC(=O)C(NC(=O)c2c3nc4c(C(=O)NC5C(=O)NC(C(C)C)C(=O)N6CCCC6C(=O)N(C)CC(=O)N(C)C(C(C)C)C(=O)OC5C)ccc(C)c4oc-3c(C)c(=O)c2N)C(C)OC(=O)C(C(C)C)N(C)C(=O)CN(C)C(=O)C2CCCN2C1=O` (stereo not given) (I: TIP[Sar][NMeV] / II: TVP[Sar][NMeV]; ester I:1-I:C, II:1-II:C; linker I:N-II:N via Actinocin(1to9); configuration not given here), the GI50 was 0.000197 µM (active) with A498; 0.000431 µM (active) in the assay on A549; 0.00378 µM (active) in the assay with CAKI-1; < 0.0001 µM (active) with HCT-116; 0.000513 µM (active) in the assay with HL-60; < 0.0001 µM (active) with K562. Besides, the GI50 was 0.00016 µM (active) in the assay with KM12; 0.000513 µM (active) with MDA-MB-435; 0.000689 µM (active) with Malme-3M; 0.000697 µM (active) in the assay on NCI-H23; < 0.0001 µM (active) in the assay with NCI-H460; 0.156 µM (active) in the assay on NCI/ADR-RES. The GI50 is 0.0102 µM (active) with OVCAR-4; 0.000443 µM (active) in the assay on OVCAR-8; 0.000346 µM (active) in the assay on PC-3; 0.00165 µM (active) with SF-539; < 0.0001 µM (active) in the assay on SNB-19; 0.00762 µM (active) in the assay on SNB-75. Besides, the GI50 with T47D is 0.00183 µM (active); in the assay on TK-10, 0.0137 µM (active).

As for `CN(C)CCCC1c2ccccc2Oc2ccc(C(F)(F)F)cc21` (stereo not given), the GI50 with A498 was 10.8 µM (inactive); in the assay on A549 it was 14.9 µM (inactive); in the assay on CAKI-1, 12.9 µM (inactive); in the assay on HCT-116 it was 11.7 µM (inactive); in the assay with HL-60 it was 12.1 µM (inactive); in the assay with K562 it was 5.9 µM (inactive). In addition, the GI50 in the assay with KM12 was 14.2 µM (inactive); in the assay on MDA-MB-435 it was 6.64 µM (inactive); in the assay with Malme-3M, 2.79 µM (inactive); with NCI-H23, 16 µM (inactive); in the assay on NCI-H460 it was 15 µM (inactive); in the assay with NCI/ADR-RES, 13.7 µM (inactive). Also, the GI50 was 14.5 µM (inactive) with OVCAR-4; 16.8 µM (inactive) in the assay with OVCAR-8; 13.7 µM (inactive) with PC-3; 13.3 µM (inactive) in the assay with SF-539; 16.7 µM (inactive) in the assay on SNB-19; 14.3 µM (inactive) with SNB-75. Further, the figures for the GI50 in the assay with T47D and in the assay on TK-10 were 14.6 µM (inactive) and 15.6 µM (inactive), respectively.

Take `O=[N+]([O-])c1nccn1CC(O)CN1CCCCC1` (stereo not given) [PIMONIDAZOLE]: the GI50 in the assay with A498, with A549, in the assay with CAKI-1, with HCT-116, in the assay on HL-60 and with K562 was > 100 µM (inactive) in each case. In addition, the GI50 with KM12, with MDA-MB-435, with Malme-3M, in the assay with NCI-H23, in the assay on NCI-H460 and with NCI/ADR-RES was > 100 µM (inactive) in each case. In addition, the GI50 with OVCAR-4, with OVCAR-8, in the assay with PC-3, with SF-539, in the assay with SNB-19 and with SNB-75 was > 100 µM (inactive) in each case. In addition, the GI50 with T47D and with TK-10 was > 100 µM (inactive) throughout.

For the compound `CC(=O)OCC1OC(n2c(C#N)cc(=O)[nH]c2=O)CC1OC(C)=O` (stereo not given), the GI50 in the assay with A498, in the assay on A549, in the assay with CAKI-1, in the assay on HCT-116, with HL-60 and with K562 was > 100 µM (inactive) throughout. The GI50 with KM12, in the assay on MDA-MB-435, with Malme-3M, in the assay on NCI-H23, in the assay on NCI-H460 and in the assay on NCI/ADR-RES was > 100 µM (inactive) throughout. The GI50 with OVCAR-4, in the assay with OVCAR-8, in the assay with PC-3, in the assay with SF-539, in the assay on SNB-19 and in the assay with SNB-75 was > 100 µM (inactive) each time. For the same compound, the GI50 with T47D and in the assay on TK-10 was > 100 µM (inactive) throughout.

As for `C/C(=N/NC(=S)N1CCN(C(=S)N/N=C(/C)c2ccccn2)CC1)c1ccccn1`, the GI50 with A498 was 8.81 µM (inactive); in the assay with A549 it was 9.12 µM (inactive); with CAKI-1, 6.56 µM (inactive); in the assay with HCT-116, 6.89 µM (inactive); in the assay with HL-60, 0.352 µM (active); with K562, 16.3 µM (inactive). Further, the GI50 in the assay with KM12 was 16.5 µM (inactive); in the assay with MDA-MB-435, 28 µM (inactive); in the assay on Malme-3M, 4.6 µM (inactive); in the assay on NCI-H23 it was 10.1 µM (inactive); with NCI-H460, 2.99 µM (inactive); in the assay with NCI/ADR-RES it was 4.16 µM (inactive). For the same compound, the GI50 in the assay with OVCAR-4 is 8.2 µM (inactive); in the assay with OVCAR-8, 4.13 µM (inactive); with PC-3 it was 14.3 µM (inactive); in the assay on SF-539 it was 6.4 µM (inactive); with SNB-19, 11.7 µM (inactive); with SNB-75 it was 15.1 µM (inactive). Also, the GI50 in the assay with T47D is 3.52 µM (inactive); in the assay with TK-10 it was 4.84 µM (inactive).

As for `O=C(Nc1nn(C(=O)c2cccnc2)c(=O)s1)c1ccc(Cl)cc1`, the GI50 with A498 is > 100 µM (inactive); in the assay on A549, 99.8 µM (inactive); in the assay on CAKI-1 it was 40.6 µM (inactive); in the assay with HCT-116, 84.5 µM (inactive); with HL-60, 60.3 µM (inactive); with K562, 47.5 µM (inactive). For the same compound, the GI50 in the assay with KM12 is 61.7 µM (inactive); in the assay on MDA-MB-435, > 100 µM (inactive); in the assay on Malme-3M, 31.6 µM (inactive); in the assay with NCI-H23, > 100 µM (inactive); with NCI-H460 it was > 100 µM (inactive); with NCI/ADR-RES, > 100 µM (inactive). For the same compound, the GI50 is 84.7 µM (inactive) with OVCAR-4; > 100 µM (inactive) in the assay with OVCAR-8; 61.1 µM (inactive) in the assay on PC-3; 29.4 µM (inactive) with SF-539; > 100 µM (inactive) in the assay with SNB-19; 29.4 µM (inactive) in the assay with SNB-75. Besides, the GI50 is 27 µM (inactive) with T47D and 76.6 µM (inactive) in the assay on TK-10.
